Results taken from ChEMBL document CHEMBL1201862, “PubChem BioAssay data set” (2004).
Calls of active or inactive are those of the source.

Key:
[1] = biological target: T1, Replicative DNA helicase DnaB (Mycobacterium tuberculosis, UniProt P9WMR3); assay: DnaB intein splicing inhibitors, dose response, biochemical, cell-free fluorescence (AID 449749); type: functional
T1 sequence (P9WMR3 whole entry): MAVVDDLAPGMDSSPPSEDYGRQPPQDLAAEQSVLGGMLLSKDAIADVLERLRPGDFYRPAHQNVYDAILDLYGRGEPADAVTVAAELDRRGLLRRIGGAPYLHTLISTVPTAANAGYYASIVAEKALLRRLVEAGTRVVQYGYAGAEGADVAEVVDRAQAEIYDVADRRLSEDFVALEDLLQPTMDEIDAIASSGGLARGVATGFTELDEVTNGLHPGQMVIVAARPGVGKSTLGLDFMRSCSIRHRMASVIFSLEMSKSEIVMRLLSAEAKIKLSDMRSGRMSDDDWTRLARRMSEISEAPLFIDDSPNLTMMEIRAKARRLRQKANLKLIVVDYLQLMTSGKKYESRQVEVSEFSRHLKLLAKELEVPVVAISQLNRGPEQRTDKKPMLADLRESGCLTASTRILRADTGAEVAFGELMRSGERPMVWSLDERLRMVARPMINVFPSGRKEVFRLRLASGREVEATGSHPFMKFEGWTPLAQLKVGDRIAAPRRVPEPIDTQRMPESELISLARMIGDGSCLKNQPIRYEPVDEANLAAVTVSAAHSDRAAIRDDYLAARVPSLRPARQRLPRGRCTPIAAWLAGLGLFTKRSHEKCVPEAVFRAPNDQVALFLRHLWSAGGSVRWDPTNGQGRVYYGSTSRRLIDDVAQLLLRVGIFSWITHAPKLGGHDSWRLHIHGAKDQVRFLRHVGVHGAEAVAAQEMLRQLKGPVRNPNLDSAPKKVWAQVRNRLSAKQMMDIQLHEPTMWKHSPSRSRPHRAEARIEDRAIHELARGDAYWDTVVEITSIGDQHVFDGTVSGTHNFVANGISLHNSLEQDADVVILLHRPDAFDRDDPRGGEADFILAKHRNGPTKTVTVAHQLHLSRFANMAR

Protein RecA = biological target: T2, Protein RecA (Mycobacterium tuberculosis, UniProt P9WHJ3); assay: Fluorescence Cell-Free Homogeneous Dose Retest to Identify Inhibitors of RecA-Intein Splicing Activity. [Related pubchem assays (depositor defined):AID2097, AID2223, AID489010, AID492950]; type: functional
T2 sequence (P9WHJ3 whole entry): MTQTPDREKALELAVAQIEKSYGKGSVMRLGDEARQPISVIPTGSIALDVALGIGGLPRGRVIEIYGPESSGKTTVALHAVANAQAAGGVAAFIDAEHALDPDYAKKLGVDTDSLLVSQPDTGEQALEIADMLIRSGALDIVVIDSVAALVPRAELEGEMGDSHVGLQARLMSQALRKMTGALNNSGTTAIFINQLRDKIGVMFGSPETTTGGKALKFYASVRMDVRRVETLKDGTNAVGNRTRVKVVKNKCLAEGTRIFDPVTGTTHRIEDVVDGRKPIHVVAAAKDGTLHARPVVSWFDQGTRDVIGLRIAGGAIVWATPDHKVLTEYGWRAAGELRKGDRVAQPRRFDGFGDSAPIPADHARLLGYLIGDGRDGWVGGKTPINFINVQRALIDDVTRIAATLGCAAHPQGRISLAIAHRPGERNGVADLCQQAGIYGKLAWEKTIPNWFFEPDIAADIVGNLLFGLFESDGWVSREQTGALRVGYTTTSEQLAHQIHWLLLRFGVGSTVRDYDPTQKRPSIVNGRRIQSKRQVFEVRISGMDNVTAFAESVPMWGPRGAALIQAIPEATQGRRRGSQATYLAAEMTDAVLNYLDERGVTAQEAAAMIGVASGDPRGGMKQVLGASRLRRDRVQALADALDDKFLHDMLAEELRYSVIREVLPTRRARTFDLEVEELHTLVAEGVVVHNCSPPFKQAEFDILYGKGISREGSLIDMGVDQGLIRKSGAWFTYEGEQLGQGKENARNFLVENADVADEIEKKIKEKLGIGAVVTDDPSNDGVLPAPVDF

[2] = biological target: T3, Rac GTPase-activating protein 1 (Homo sapiens, UniProt Q9H0H5); assay: MgcRacGAP GTPase-activating activity inhibitors, confirmation, biochemical, ADP Hunter fluorescence, primary and confirmatory (AID 624330); type: functional
T3 sequence (Q9H0H5 whole entry): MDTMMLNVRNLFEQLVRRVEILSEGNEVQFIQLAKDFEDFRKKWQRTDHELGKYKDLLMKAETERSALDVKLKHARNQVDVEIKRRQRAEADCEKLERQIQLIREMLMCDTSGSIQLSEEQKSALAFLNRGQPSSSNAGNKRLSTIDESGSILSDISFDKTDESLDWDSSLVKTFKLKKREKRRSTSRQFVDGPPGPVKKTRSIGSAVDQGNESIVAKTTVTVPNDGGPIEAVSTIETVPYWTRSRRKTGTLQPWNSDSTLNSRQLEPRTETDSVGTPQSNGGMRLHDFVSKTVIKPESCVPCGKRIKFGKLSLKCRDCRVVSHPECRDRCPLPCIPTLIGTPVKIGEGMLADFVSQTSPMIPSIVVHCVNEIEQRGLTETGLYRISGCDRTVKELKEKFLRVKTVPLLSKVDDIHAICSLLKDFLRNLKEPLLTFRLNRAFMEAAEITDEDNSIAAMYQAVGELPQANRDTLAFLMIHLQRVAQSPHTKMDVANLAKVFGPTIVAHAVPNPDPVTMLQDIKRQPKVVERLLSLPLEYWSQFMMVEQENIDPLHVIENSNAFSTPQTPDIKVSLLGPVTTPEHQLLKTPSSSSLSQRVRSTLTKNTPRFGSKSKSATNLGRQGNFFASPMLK

[3] = HEp-2 cell cytotoxicity, dose response, cytotoxicity control for RSV inhibitor project, HTS (AID 2410); type: functional; conditions: human respiratory syncytial virus
[4] = NIH-3T3 fibroblast cytotoxicity, dose response, cytotoxicity control, cell-based, fluorescence, Alamar Blue, secondary assay (AID 2327); type: functional;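 further: NIH-3T3 mouse fibroblasts cultured with fluconazole at 8 µg/mL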
Cytochrome P450 2C9 = Cytochrome P450 2C9 (Homo sapiens, UniProt P11712)
Sequence of Cytochrome P450 2C9 (P11712 whole entry): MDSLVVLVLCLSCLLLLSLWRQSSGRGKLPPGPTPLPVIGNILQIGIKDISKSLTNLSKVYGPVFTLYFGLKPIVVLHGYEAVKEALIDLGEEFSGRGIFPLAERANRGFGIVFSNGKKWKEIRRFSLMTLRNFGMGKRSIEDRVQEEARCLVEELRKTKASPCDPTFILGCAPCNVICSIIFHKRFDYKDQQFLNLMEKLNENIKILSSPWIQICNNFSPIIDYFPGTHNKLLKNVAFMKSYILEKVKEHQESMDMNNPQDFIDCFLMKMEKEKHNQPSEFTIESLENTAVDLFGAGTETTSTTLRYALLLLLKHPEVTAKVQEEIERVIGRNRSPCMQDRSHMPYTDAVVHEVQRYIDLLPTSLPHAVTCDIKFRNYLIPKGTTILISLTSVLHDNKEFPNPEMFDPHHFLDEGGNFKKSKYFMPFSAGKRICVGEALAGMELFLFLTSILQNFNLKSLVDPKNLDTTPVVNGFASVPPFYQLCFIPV

Cytochrome P450 1A2 = biological target: T4, Cytochrome P450 1A2 (Homo sapiens, UniProt P05177);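 further: PubChem cytochrome P450 panel assay, CYP1A2 panel member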
T4 sequence (P05177 whole entry): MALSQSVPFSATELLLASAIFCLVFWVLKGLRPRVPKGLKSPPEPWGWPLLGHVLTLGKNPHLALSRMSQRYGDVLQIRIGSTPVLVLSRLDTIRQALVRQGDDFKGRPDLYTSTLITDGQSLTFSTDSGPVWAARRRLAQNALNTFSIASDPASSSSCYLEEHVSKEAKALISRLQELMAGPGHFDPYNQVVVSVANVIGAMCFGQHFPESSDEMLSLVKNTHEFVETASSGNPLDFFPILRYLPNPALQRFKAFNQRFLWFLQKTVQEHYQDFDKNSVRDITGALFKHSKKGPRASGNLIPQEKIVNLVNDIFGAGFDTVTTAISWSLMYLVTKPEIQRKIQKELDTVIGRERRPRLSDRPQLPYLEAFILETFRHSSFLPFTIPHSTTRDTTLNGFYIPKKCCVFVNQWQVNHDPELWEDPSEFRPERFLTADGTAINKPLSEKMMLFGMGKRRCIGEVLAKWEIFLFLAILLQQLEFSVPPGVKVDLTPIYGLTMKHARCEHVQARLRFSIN

P388/ADR = assay: cells; type: functional; conditions: Mus musculus

## CN1C(=O)C(Cc2ccc3c(c2)OCO3)C(=O)N(C)C1=O
[1]
  AC50: 35.3 µM (active)
Protein RecA
  EC50: 10 µM (active)

## CC1=NNC(=O)C1Cc1ccccc1 (stereo not drawn)
[1]
  AC50: 0.651 µM (active)
Protein RecA
  EC50: 0.294 µM (active)

## O=C(N/N=C/c1ccc(O)cc1)NC12CC3CC(CC(C3)C1)C2
[2]
  IC50: 55.9 µM (active)

## Oc1ncnc2scc(-c3ccc(Br)cc3)c12
[3]
  CC50: > 50 µM (active)

## COc1ccc(-c2cc(OC)c3ccccc3n2)cc1
[3]
  CC50: > 50 µM (active)

## CN(C)/C=N/c1nc(-c2ccc3ccccc3c2)cs1
[3]
  CC50: 22.8 µM (active)

## C=CCc1cccc(/C=N/c2cnc(O)nc2O)c1O
[1]
  AC50: > 380 µM (inactive)
Protein RecA
  EC50: > 380 µM (inconclusive)

## CNc1cc([N+](=O)[O-])ccc1OCc1ccccc1
[3]
  CC50: 18.7 µM (active)

## COC(=O)c1ccccc1OC(=O)c1ccc(Br)o1
[1]
  AC50: 12.8 µM (active)
Protein RecA
  EC50: 15.2 µM (active)

## COc1cc(N)c(Cc2nccc3cc(OC)c(OC)cc23)cc1OC
[1]
  AC50: > 380 µM (inactive)
Protein RecA
  EC50: 31.7 µM (active)

## O=c1c2ccccc2nc(-c2ccc([N+](=O)[O-])cc2)n1O
[4]
  EC50: > 150 µM (inactive)

## O=C(NC(=C(Cl)Cl)S(=O)(=O)c1ccc(Cl)cc1)c1ccccc1
[1]
  AC50: > 380 µM (inactive)
Protein RecA
  EC50: 1.53 µM (active)

## CC1(C)OC(C)(C)C(/C=N/c2ccc(O)cc2)=C1O
[2]
  IC50: 17 µM (active)

## CC(NCc1ccc(S(N)(=O)=O)cc1)C(=O)N1c2ccccc2CC1C (stereo not drawn)
[2]
  IC50: 135 µM (active)

## CCN(Cc1ccccc1)C1CCN(Cc2ccc(SC)cc2)CC1
[2]
  IC50: 100 µM (active)

## COc1ccc(CN2CN(c3ccc(Cl)cc3)C(=O)N(n3cnnc3)C2)cc1
Cytochrome P450 2C9
  AC50: 39.8 µM (inconclusive)
Cytochrome P450 1A2
  AC50: 15.8 µM (inconclusive)

## Cc1ccc(N2C(S)=C(C#N)C(=O)NC2c2cccs2)cc1 (stereo not drawn)
[2]
  IC50: 128 µM (active)

## COC(=O)c1ccc2c(=O)n(CCO)c(=S)[nH]c2c1
[3]
  CC50: 25.2 µM (active)

## Cc1onc(-c2c(Cl)cccc2Cl)c1C(=O)N1C(C)CCCC1C (stereo not drawn)
[1]
  AC50: 118 µM (active)
Protein RecA
  EC50: > 380 µM (inactive)

## COC(=O)c1ccccc1OCC(=O)N1CCN(c2ccc(Cl)cc2)CC1
Cytochrome P450 2C9
  AC50: 14.1 µM (inconclusive)
Cytochrome P450 1A2
  AC50: 14.1 µM (inconclusive)

## Oc1ccc(-c2nccs2)cc1
[2]
  IC50: 28.1 µM (active)

## CC1(C)SC(=S)N(NC(=O)Nc2ccccc2)C1N(O)C(=O)Nc1ccccc1 (stereo not drawn)
Cytochrome P450 1A2
  AC50: 28.2 µM (inconclusive)

## CNC(=S)N1CCN(c2ccccc2OC)CC1
Cytochrome P450 2C9
  AC50: 14.1 µM (inconclusive)

## COc1ccc(/C=N/N=C(\N)c2nonc2N)cc1OC
[3]
  CC50: 30.9 µM (active)

## CC(C)C(=O)N1CCN(c2c(Cl)cccc2[N+](=O)[O-])CC1
[3]
  CC50: 16.3 µM (active)

## COc1ccccc1Nc1ncc(-c2cccs2)s1
[3]
  CC50: 43 µM (active)

## COC(=O)Cc1c(C)nc2nc(NCc3ccccc3OC)nn2c1O
Cytochrome P450 2C9
  AC50: 22.4 µM (inconclusive)

## NS(=O)(=O)c1cccc(NC(=O)COC(=O)c2cc(-c3ccc(Cl)cc3)nc3ccccc23)c1
[3]
  CC50: 18.5 µM (active)

## CCOc1cc(C(c2c(C)n[nH]c2O)c2c(C)n[nH]c2O)ccc1OS(=O)(=O)c1ccc(C)cc1
[1]
  AC50: 0.413 µM (active)
Protein RecA
  EC50: 0.152 µM (active)

## CCNC(=O)c1ccccc1-c1nc(-c2ccccc2)no1
[1]
  AC50: > 380 µM (inactive)
Protein RecA
  EC50: > 380 µM (inactive)

## Cc1oc(-c2ccccc2Cl)nc1CSCC(=O)NC1CC1
Cytochrome P450 2C9
  AC50: 20 µM (inconclusive)

## O=C(CNCc1ccc(Cl)cc1)Nc1ccc2c(c1)OCCO2
[2]
  IC50: 156 µM (active)

## Cc1ccc(OCC(=O)NC2=NCCS2)cc1
Cytochrome P450 2C9
  AC50: 10 µM (inconclusive)

## CCC(C)Oc1ccc(/C=C/c2nc(O)nc(O)c2[N+](=O)[O-])cc1OC (stereo not drawn)
[3]
  CC50: 12.9 µM (active)

## COc1ccc(S(=O)(=O)NC2(C(F)(F)F)N=C3SCCN3C2=O)cc1 (stereo not drawn)
Cytochrome P450 2C9
  AC50: 28.2 µM (inconclusive)
Cytochrome P450 1A2
  AC50: 31.6 µM (inconclusive)

## CN(C)CCn1c(C(=O)O)cc2ccccc21
Cytochrome P450 1A2
  AC50: 0.0158 µM (inconclusive)

## COc1ccc(C)cc1Nc1nc(N)c2ccccc2n1
[3]
  CC50: > 50 µM (active)

## C/C=C(\C)C(=O)OC1C2C(C)=CC(=O)C(O)C2(C)C2C3(O)OCC24C1OC(=O)C(OC(C)=O)C4C(C)C3O (stereo not drawn)
P388/ADR
  GI50: 0.319 µM (active)

## COCCn1c(=O)cnc2cnc(Nc3cccc(OC)c3)nc21
Cytochrome P450 2C9
  AC50: 25.1 µM (inconclusive)

## CCOC(=O)[C@H](N)/C=C(\C)CP(=O)(O)O
Cytochrome P450 2C9
  AC50: 25.1 µM (inconclusive)

## CCOC(=O)/C(C#N)=C1\C(=O)N(Cc2ccccc2)c2ccccc21
[2]
  IC50: 42.4 µM (active)

## COC(=O)[C@@]1(Cc2ccccc2)[C@H]2c3cc(C(=O)N4CCCC4)n(C)c3C[C@H]2CN1C(=O)c1ccccc1
Cytochrome P450 1A2
  AC50: 25.1 µM (inconclusive)

## c1ccc(SC(Sc2ccccc2)c2ccc3c(c2)OCO3)cc1
Cytochrome P450 1A2
  AC50: 0.501 µM (inconclusive)

## CN(C)c1ncc2nc(-c3ccccc3)c(=O)n(Cc3ccc(F)cc3)c2n1
Cytochrome P450 1A2
  AC50: 12.6 µM (inconclusive)

## Cc1ccccc1OC[C@H](O)CO
Cytochrome P450 1A2
  AC50: 15.8 µM (inconclusive)

## CCn1c(SCc2ccc(Cl)cc2Cl)nc2nc3c(cc2c1=O)CCCC3
Cytochrome P450 2C9
  AC50: 5.01 µM (inconclusive)
